The structures appear in SMILES notation. Read-outs that look alike come from different tables or passages of the source.

The test system of experiment [1] is Eimeria tenella. Nature of the experiment: Inhibitory effects of the derivatives on Eimeria tenella of chicken (60 ppm in feed). The experiment is classed as in vivo. The settings on record: for responders at 60 ppm, 60 µg/mL / response vs control in vivo at 60 ppm, 60 µg/mL: Eimeria tenella, 168 h; for responders at 60 ppm, 60 µg/mL: read-out: Survival rate (%); for response vs control in vivo at 60 ppm, 60 µg/mL: relative to group 1 (not infected, not treated), read-out: Relative weight gain (%); for Score (bloody stool score): 5 days after inoculation. From the text: One-day-old yellow-feather fast-growing broilers were raised in a coccidia-free environment, and divided into groups for trial at the age of 18 days when no coccidian oocysts were detected by microscopy in their faeceas. Weak or overweight broilers were removed, and healthy broilers were divided into 30 groups with 50 broilers in each group and weight difference between each two broilers was below 20 g. Groups 1 and 2 were respectively a control group that the broilers were neither infected nor treated, and a control group that the broilers were infected but not treated. Groups 3 to 30 were respectively administrated with different derivatives. The broilers were given ad libitum access to feed and water when the feed was added with different medicines according to Table 1 at the day the broilers were divided. 24 Hours after the trial began, 250,000 sporulated Eimeria tenella oocysts were inoculated via an oral gavage into the crop of every broiler in each group except group 1. Bloody stool score was measured 5 days after the inoculation and the trial was ended 7 days after the inoculation. Relative weight gain (%), survival rate (%) and the bloody stool score were evaluated.
Bloody stool score: 0, no bloody stool was observed; 1, bloody stool below 25%; 2, 25 to 50% of bloody stool; 3, 50 to 75% of bloody stool; and 4, bloody stool over 75%.
(§1) Relative weight gain (%): The broilers were weighed at the beginning and the end of the trial to calculate the average weight gain and relative weigh gain. Relative weight gain=(average weight gain of each group/average weight gain of group 1)×100%.
(§2) Deaths of the broilers: Necropsy was performed and the amount of dead broilers in each group was recorded to calculate the survival rate. Survival rate=(total amount of the broilers in each group−amount of deaths caused by coccidial infection)/total amount of the broilers in each group×100%.

For experiment [2], the system named is Eimeria acervulina. Nature of the experiment: Inhibitory effects of the derivatives on Eimeria acervulina of chicken. The experiment is classed as in vivo. The settings on record: for responders at 60 ppm, 60 µg/mL / response vs control in vivo at 60 ppm, 60 µg/mL: Eimeria acervulina, 168 h; for responders at 60 ppm, 60 µg/mL: read-out: Survival rate (%); for response vs control in vivo at 60 ppm, 60 µg/mL: feed or water, read-out: Relative weight gain (%). As to the method: as §1, §2
One-day-old yellow-feather fast-growing broilers were raised in a coccidia-free environment, and divided into groups for trial at the age of 18 days when no coccidian oocysts were detected by microscopy in their faeceas. Weak or overweight broilers were removed, and healthy broilers were divided into 10 groups with 50 broilers in each group and weight difference between each two broilers was below 20 g. Groups 1 and 2 were respectively a control group that the broilers were neither infected nor treated, and a control group that the broilers were infected but not treated. Groups 3 to 10 were respectively administrated with different derivatives. The broilers were given ad libitum access to feed and water when the feed was added with different medicines according to Table 3 at the day the broilers were divided. 24 Hours after the trial began, 400,000 sporulated Eimeria acervulina oocysts were inoculated via an oral gavage into the crop of every broiler in each group except group 1. The trial was ended 7 days after the inoculation. Relative weight gain (%), survival rate (%) and feed conversion ratio were evaluated.

Where [3] appears, read: broilers, 60 ppm in feed, 250,000 E. tenella oocysts.
Where [4] appears, read: broilers, 60 ppm in feed, 250,000 E. tenella oocysts, 7 days after inoculation.
Setting [5] is: broilers, 60 ppm in feed, 400,000 E. acervulina oocysts.

Turning to `O=C(Nc1ccc([N+](=O)[O-])cc1)c1nc[nH]c1C(=O)Nc1ccc([N+](=O)[O-])cc1` [IST15009, N^4,N^5-bis(4-nitrophenyl)-1H-imidazole-4,5-dicarboxamide], the responders at 60 ppm, 60 µg/mL in experiment [1] is 100%. Further, in experiment [1] (setting [3]), the response vs control in vivo at 60 ppm, 60 µg/mL amounted to 82.6% and the “Score (bloody stool score)” value was 3 (50 to 75% of bloody stool).

Turning to `CCCCN1C(=O)c2nc[nH]c2C1=O` [IST15013, 5-butylpyrrolo[3,4-d]imidazole-4,6(1H,5H)-dione], the responders at 60 ppm, 60 µg/mL in experiment [1] (setting [4]) came to 100%. Moreover, in experiment [1] (setting [3]), the response vs control in vivo at 60 ppm, 60 µg/mL came to 88.8% and the “Score (bloody stool score)” value is given as 3 (50 to 75% of bloody stool).

As to `O=C1NC(=O)c2[nH]cnc21` [IST15015, pyrrolo[3,4-d]imidazole-4,6(1H,5H)-dione], the responders at 60 ppm, 60 µg/mL in experiment [1] (setting [4]) was 100%. Moreover, in experiment [1] (setting [3]), the response vs control in vivo at 60 ppm, 60 µg/mL stood at 72.5% and the “Score (bloody stool score)” value was 4 (bloody stool over 75%).

For the molecule `Cc1nc(=O)c2[nH]cnc2c(=O)[nH]1` [IST15016, 6-methylimidazo[4,5-e][1,3]diazepine-4,8(1H,5H)-dione], the responders at 60 ppm, 60 µg/mL in experiment [1] (setting [4]) was found to be 100%. In experiment [1] (setting [3]), the response vs control in vivo at 60 ppm, 60 µg/mL came out at 74.8% and the “Score (bloody stool score)” value was 2 (25 to 50% of bloody stool). Also, the responders at 60 ppm, 60 µg/mL in experiment [2] (broilers, 60 ppm in feed, 400,000 E. acervulina oocysts, 7 days after inoculation) came out at 100%. For the same molecule, in experiment [2] (setting [5]), the response vs control in vivo at 60 ppm, 60 µg/mL was determined as 75.6% and the Feed conversion ratio came to 2.524.

Turning to `NC(=O)c1ncn(Cc2cccc(Cl)c2)c1C(N)=O` [IST15041, 1-(3-chlorobenzyl)-1H-imidazole-4,5-dicarboxamide], in experiment [1] (setting [4]), the responders at 60 ppm, 60 µg/mL is 100%. Further, in experiment [1] (setting [3]), the response vs control in vivo at 60 ppm, 60 µg/mL stood at 85.4% and the “Score (bloody stool score)” value is given as 3 (50 to 75% of bloody stool).

As to `NC(=O)c1ncn(Cc2ccc(F)cc2)c1C(N)=O` [IST15042, 1-(4-fluorobenzyl)-1H-imidazole-4,5-dicarboxamide], the responders at 60 ppm, 60 µg/mL in experiment [1] (setting [4]) was 100%. Further, in experiment [1] (setting [3]), the response vs control in vivo at 60 ppm, 60 µg/mL was 81.2% and the “Score (bloody stool score)” value is listed as 3 (50 to 75% of bloody stool).

Take `NC(=O)c1ncn(Cc2c(Cl)cccc2Cl)c1C(N)=O` [IST15044, 1-(2,6-dichlorobenzyl)-1H-imidazole-4,5-dicarboxamide]: the responders at 60 ppm, 60 µg/mL in experiment [1] (setting [4]) stood at 100%. In experiment [1] (setting [3]), the response vs control in vivo at 60 ppm, 60 µg/mL turned out to be 79.8% and the “Score (bloody stool score)” value is on record as 3 (50 to 75% of bloody stool).

`Cc1ccc(Cn2cnc(C(N)=O)c2C(N)=O)cc1` [IST15046, 1-(4-methylbenzyl)-1H-imidazole-4,5-dicarboxamide]: the responders at 60 ppm, 60 µg/mL in experiment [1] (setting [4]) was 100%. Moreover, in experiment [1] (setting [3]), the response vs control in vivo at 60 ppm, 60 µg/mL was determined as 78.4% and the “Score (bloody stool score)” value is on record as 3 (50 to 75% of bloody stool).

Regarding `COc1ccc(Cn2cnc(C(N)=O)c2C(N)=O)cc1` [IST15053, 1-(4-methoxybenzyl)-1H-imidazole-4,5-dicarboxamide], the responders at 60 ppm, 60 µg/mL in experiment [1] (setting [4]) worked out at 100%. In experiment [1] (setting [3]), the response vs control in vivo at 60 ppm, 60 µg/mL turned out to be 82.5% and the “Score (bloody stool score)” value was 3 (50 to 75% of bloody stool).

As for `NC(=O)c1ncn(Cc2ccc(Cl)c(Cl)c2)c1C(N)=O` [IST15054, 1-(3,4-dichlorobenzyl)-1H-imidazole-4,5-dicarboxamide], the responders at 60 ppm, 60 µg/mL in experiment [1] (setting [4]) turned out to be 100%. Besides, in experiment [1] (setting [3]), the response vs control in vivo at 60 ppm, 60 µg/mL was determined as 71.4% and the “Score (bloody stool score)” value is reported as 4 (bloody stool over 75%).

`NC(=O)c1ncn(Cc2cc([N+](=O)[O-])cc([N+](=O)[O-])c2)c1C(N)=O` [IST15056, 1-(3,5-dinitrobenzyl)-1H-imidazole-4,5-dicarboxamide]: in experiment [1], the responders at 60 ppm, 60 µg/mL was 100%. Moreover, in experiment [1] (setting [3]), the response vs control in vivo at 60 ppm, 60 µg/mL worked out at 81.3% and the “Score (bloody stool score)” value is given as 3 (50 to 75% of bloody stool). Besides, in experiment [2], the responders at 60 ppm, 60 µg/mL was 100%. Besides, in experiment [2] (setting [5]), the response vs control in vivo at 60 ppm, 60 µg/mL was determined as 72.5% and the Feed conversion ratio was found to be 2.405.

For `CC(C)n1cnc(C(N)=O)c1C(N)=O` [IST15115, 1-isopropyl-1H-imidazole-4,5-dicarboxamide], the responders at 60 ppm, 60 µg/mL in experiment [1] (setting [4]) was 100%. In experiment [1] (setting [3]), the response vs control in vivo at 60 ppm, 60 µg/mL was found to be 85.9% and the “Score (bloody stool score)” value was 3 (50 to 75% of bloody stool).

Regarding `CCCCCn1cnc(C(N)=O)c1C(N)=O` [IST15116, 1-pentyl-1H-imidazole-4,5-dicarboxamide], the responders at 60 ppm, 60 µg/mL in experiment [1] (setting [4]) was determined as 100%. In experiment [1] (setting [3]), the response vs control in vivo at 60 ppm, 60 µg/mL came to 78.6% and the “Score (bloody stool score)” value is 3 (50 to 75% of bloody stool).

As for `CS(=O)(=O)c1ccc(Cn2cnc(C(N)=O)c2C(N)=O)cc1` [IST15150, 1-(4-(methylsulfonyl)benzyl)-1H-imidazole-4,5-dicarboxamide], the responders at 60 ppm, 60 µg/mL in experiment [1] (setting [4]) worked out at 100%. Also, in experiment [1] (setting [3]), the response vs control in vivo at 60 ppm, 60 µg/mL was 86.3% and the “Score (bloody stool score)” value is on record as 2 (25 to 50% of bloody stool).

`CC(=O)NC(=O)c1ncn(Cc2ccc(Cl)cc2)c1C(=O)NC(C)=O` [IST15151, N^4,N^5-diacetyl-1-(4-chlorobenzyl)-1H-imidazole-4,5-dicarboxamide]: the responders at 60 ppm, 60 µg/mL in experiment [1] (setting [4]) turned out to be 100%. In experiment [1] (setting [3]), the response vs control in vivo at 60 ppm, 60 µg/mL was 83.6% and the “Score (bloody stool score)” value is given as 3 (50 to 75% of bloody stool).

As for `CCC(=O)NC(=O)c1ncn(Cc2ccc(Cl)cc2)c1C(=O)NC(=O)CC` [IST15152, 1-(4-chlorobenzyl)-N^4,N^5-dipropionyl-1H-imidazole-4,5-dicarboxamide], the responders at 60 ppm, 60 µg/mL in experiment [1] (setting [4]) stood at 100%. For the same molecule, in experiment [1] (setting [3]), the response vs control in vivo at 60 ppm, 60 µg/mL is 85.6% and the “Score (bloody stool score)” value is recorded as 3 (50 to 75% of bloody stool).

With `CCCCCCn1cnc(C(N)=O)c1C(N)=O` [IST15162, 1-hexyl-1H-imidazole-4,5-dicarboxamide], the responders at 60 ppm, 60 µg/mL in experiment [1] (setting [4]) is 100%. Also, in experiment [1] (setting [3]), the response vs control in vivo at 60 ppm, 60 µg/mL is 81.6% and the “Score (bloody stool score)” value is reported as 3 (50 to 75% of bloody stool).

On to `CCn1cnc(C(=O)NC(C)=O)c1C(=O)NC(C)=O` [IST15165, N^4,N^5-diacetyl-1-ethyl-1H-imidazole-4,5-dicarboxamide], for which the responders at 60 ppm, 60 µg/mL in experiment [1] (setting [4]) was 100%. In experiment [1] (setting [3]), the response vs control in vivo at 60 ppm, 60 µg/mL was 89.7% and the “Score (bloody stool score)” value is 2 (25 to 50% of bloody stool).
